A word on the IC50: it is the point on the concentration scale where inhibition reaches its midpoint.

From article PMC5361079 (Scientific Reports, 2017) come the findings set out here.

Read-outs that look alike come from different tables or passages of the source.

One series has as its system hiPSC-CMs. The experiment in a line: Intracellular prodrug, cleavage intermediate metabolite and NTP metabolite concentrations in hiPSC-CMs. In kind it is in vitro ADME, human. To be noted: for Effect of CatA inhibitor on sofosbuvir cleavage intermediate metabolite in hiPSC-CMs: hiPSC-CMs incubated with sofosbuvir; for Intracellular Concentration, Cleavage Intermediate Metabolite / Intracellular Concentration, NTP Metabolite: BLOQ = below 17 pmol/million cells. The protocol: Approximately 18 h before dosing, iCell hiPSC-CMs were switched to iCell cardiomyocyte maintenance media free of Penicillin/Streptomycin. […] […] After the corresponding treatment, cells were washed 2x with 200 μL of ice-cold magnesium- and calcium-free PBS buffer. Cells were then lysed in 100 μL of ice-cold lysis solution (70/30 methanol/water containing 20 mM EDTA and 20 mM EGTA, pH 8) by pipetting up and down 5 times. Plates were sealed and transferred on dry ice for determination of prodrug, cleavage intermediate metabolite, and NTP metabolite concentrations. Intracellular prodrug concentrations were measured using a reversed phase HPLC- high resolution mass spectrometry method. A dimethylhexylamine based ion-pairing HPLC-MS/MS method was used to measure intracellular cleavage intermediate metabolite and NTP metabolite concentrations. Intracellular concentrations (pmol/million cells) of prodrug, cleavage intermediate metabolite, and NTP metabolite were quantitated against calibration standards of the same analytes prepared from control iCell hiPSC-CM lysates.
For prodrug analyses, full scan high resolution mass spectrometry data was collected using an Exactive™ Orbitrap mass spectrometer with an electrospray source operated in the positive ion mode. Prodrug chromatograms were extracted from full scan high resolution mass spectrometry data for the masses indicated in Supplementary Table 5. Absence of endogenous interference(s) was verified by extracting the same ion from full scan high resolution mass spectrometry chromatograms of unspiked control cell lysates. For the cleavage intermediate metabolite and NTP metabolite an electrospray MS/MS method run on a SCIEX API 4000 mass spectrometer with turboV ionspray source was used in negative ion mode monitoring the transitions indicated in Supplementary Table 5. Absence of endogenous interference(s) was verified by monitoring of the same MRM transitions for unspiked control cell lysates. Measured intracellular prodrug, cleavage intermediate metabolite, and NTP metabolite concentrations (in pmol/million cells units) were tabulated (Table 2).

For a further series, the target named is T1, Cav1.2 (Homo sapiens, UniProt Q13936).
T1 construct: expressed in transfected cells
The experiment in a line: Ca2+ influx in Cav1.2/HEK-293 cells (FDSS). The format is cell-based. Conditions: for IC50: Cav1.2/HEK-293, compound alone. How it is done: The HEK-293 cell line overexpressing Cav1.2 channel proteins was maintained in-house. HEK-293 cells transiently overexpressing Cav1.3 channel proteins were purchased from ChanTest (Charles River Laboratories, Cleveland, OH, USA). The assay was conducted as previously described. Briefly, on experiment day, cells were incubated with Codex ACTOne® dye (Codex Biosolutions, Inc., Gaithersburg, MD, USA) formulated in PPB buffer containing 25 mM potassium (in mM: 127 NaCl, 25 KCl 0.005 CaCl2, 1.7 MgCl2, 10 HEPES, pH = 7.2 with NaOH), or PPB buffer containing 1 mM potassium (in mM: 151 NaCl, 1 KCl 0.005 CaCl2, 1.7 MgCl2, 10 HEPES, pH = 7.2 with NaOH) for 1 h at room temperature, then test compounds were added for another 30-minute incubation at room temperature with a final volume of 100 μL. The Hamamatsu FDSS/μCell imaging platform simultaneously collected Ca^2+ signals from 96-well plates, at a sampling rate of 16 Hz for 20 seconds as baseline, then a trigger buffer (containing in mM: 119 NaCl, 25 KCl, 4 CaCl2, 1.7 MgCl2, 10 HEPES, pH = 7.2 with NaOH) was added using the dispenser of the FDSS/μCell instrument to generate Ca^2+ transient for 40 seconds. The peak amplitude within the latter 40 seconds minus the average amplitude of the first 20 seconds is the final Ca^2+ transient response of each well. […] Relative response of each well was calculated as follows: […]

A further series deals with hiPSC-CM syncytia. The experiment in a line: Spontaneous FP rate and IMP amplitude/beating rate in hiPSC-CM syncytia (RTCA CardioECR / RTCA Cardio). Conditions: for Effect on FP rate / Effect on IMP amplitude: prodrug co-administered with 0.3 μM amiodarone, steady state (4 h), spontaneously beating hiPSC-CM syncytia. In kind it is cell-based, human. How it is done: hiPSC-CMs (iCells®) from Cellular Dynamics International (CDI, Madison, WI, USA) were seeded onto 48-well CardioECR or 96-well Cardio E-Plates® (ACEA Biosciences Inc., San Diego, CA, USA) coated with 10 μg/mL fibronectin (Sigma Aldrich, Catalog# F1141) at 30,000 cells/well, following manufacturer’s recommendations. Cells were maintained in culture (37 °C, 5% CO2) for a period of 14 days with iCell Maintenance® media (CDI, Madison, WI, USA) exchanged every 2–3 days. Compound addition was only performed on or after Day 14 following cell seeding.
Compound stock solutions were prepared in 100% DMSO or H2O. On the day of compound addition, the media was exchanged with fresh iCell Maintenance® media and allowed to equilibrate for at least 3 h in the incubator. The plates were read on an xCELLigence® RTCA CardioECR or RTCA Cardio (ACEA Biosciences Inc., San Diego, CA, USA). Control pre-reads to establish a baseline were recorded for at least 45 minutes (4 reads at 15-min intervals) prior to compound addition. The compound stock solutions were diluted into iCell Maintenance® media and quickly added to the plate. The plate was continuously monitored for at least 18 h following compound addition. IMP data were sampled at 12 ms (83 Hz), while FP rate data were collected at 0.1 ms (10 KHz). Attachment, growth and viability of syncytia were monitored by means of the baseline IMP signal, as previously described. IMP and FP signals were only interpreted if the baseline IMP was maintained throughout the measurement period (usually ≤18 hrs) at ≥70% of the value before test compound application (pre-read value).

Where [1] appears, read: hiPSC-CMs, 10 μM prodrug alone, 4 Hours.
The mark [2] stands for this setting: hiPSC-CMs, 10 μM prodrug alone, 30 Min.
The mark [3] stands for this setting: read-out: IC50, Ca2+ influx inhibition.
Setting [4] is: hiPSC-CMs, 10 μM prodrug + 0.3 μM amiodarone, 4 Hours.
Setting [5] is: hiPSC-CMs, 10 μM prodrug + 0.3 μM amiodarone, 30 Min.

T1 sequence (Q13936 whole entry): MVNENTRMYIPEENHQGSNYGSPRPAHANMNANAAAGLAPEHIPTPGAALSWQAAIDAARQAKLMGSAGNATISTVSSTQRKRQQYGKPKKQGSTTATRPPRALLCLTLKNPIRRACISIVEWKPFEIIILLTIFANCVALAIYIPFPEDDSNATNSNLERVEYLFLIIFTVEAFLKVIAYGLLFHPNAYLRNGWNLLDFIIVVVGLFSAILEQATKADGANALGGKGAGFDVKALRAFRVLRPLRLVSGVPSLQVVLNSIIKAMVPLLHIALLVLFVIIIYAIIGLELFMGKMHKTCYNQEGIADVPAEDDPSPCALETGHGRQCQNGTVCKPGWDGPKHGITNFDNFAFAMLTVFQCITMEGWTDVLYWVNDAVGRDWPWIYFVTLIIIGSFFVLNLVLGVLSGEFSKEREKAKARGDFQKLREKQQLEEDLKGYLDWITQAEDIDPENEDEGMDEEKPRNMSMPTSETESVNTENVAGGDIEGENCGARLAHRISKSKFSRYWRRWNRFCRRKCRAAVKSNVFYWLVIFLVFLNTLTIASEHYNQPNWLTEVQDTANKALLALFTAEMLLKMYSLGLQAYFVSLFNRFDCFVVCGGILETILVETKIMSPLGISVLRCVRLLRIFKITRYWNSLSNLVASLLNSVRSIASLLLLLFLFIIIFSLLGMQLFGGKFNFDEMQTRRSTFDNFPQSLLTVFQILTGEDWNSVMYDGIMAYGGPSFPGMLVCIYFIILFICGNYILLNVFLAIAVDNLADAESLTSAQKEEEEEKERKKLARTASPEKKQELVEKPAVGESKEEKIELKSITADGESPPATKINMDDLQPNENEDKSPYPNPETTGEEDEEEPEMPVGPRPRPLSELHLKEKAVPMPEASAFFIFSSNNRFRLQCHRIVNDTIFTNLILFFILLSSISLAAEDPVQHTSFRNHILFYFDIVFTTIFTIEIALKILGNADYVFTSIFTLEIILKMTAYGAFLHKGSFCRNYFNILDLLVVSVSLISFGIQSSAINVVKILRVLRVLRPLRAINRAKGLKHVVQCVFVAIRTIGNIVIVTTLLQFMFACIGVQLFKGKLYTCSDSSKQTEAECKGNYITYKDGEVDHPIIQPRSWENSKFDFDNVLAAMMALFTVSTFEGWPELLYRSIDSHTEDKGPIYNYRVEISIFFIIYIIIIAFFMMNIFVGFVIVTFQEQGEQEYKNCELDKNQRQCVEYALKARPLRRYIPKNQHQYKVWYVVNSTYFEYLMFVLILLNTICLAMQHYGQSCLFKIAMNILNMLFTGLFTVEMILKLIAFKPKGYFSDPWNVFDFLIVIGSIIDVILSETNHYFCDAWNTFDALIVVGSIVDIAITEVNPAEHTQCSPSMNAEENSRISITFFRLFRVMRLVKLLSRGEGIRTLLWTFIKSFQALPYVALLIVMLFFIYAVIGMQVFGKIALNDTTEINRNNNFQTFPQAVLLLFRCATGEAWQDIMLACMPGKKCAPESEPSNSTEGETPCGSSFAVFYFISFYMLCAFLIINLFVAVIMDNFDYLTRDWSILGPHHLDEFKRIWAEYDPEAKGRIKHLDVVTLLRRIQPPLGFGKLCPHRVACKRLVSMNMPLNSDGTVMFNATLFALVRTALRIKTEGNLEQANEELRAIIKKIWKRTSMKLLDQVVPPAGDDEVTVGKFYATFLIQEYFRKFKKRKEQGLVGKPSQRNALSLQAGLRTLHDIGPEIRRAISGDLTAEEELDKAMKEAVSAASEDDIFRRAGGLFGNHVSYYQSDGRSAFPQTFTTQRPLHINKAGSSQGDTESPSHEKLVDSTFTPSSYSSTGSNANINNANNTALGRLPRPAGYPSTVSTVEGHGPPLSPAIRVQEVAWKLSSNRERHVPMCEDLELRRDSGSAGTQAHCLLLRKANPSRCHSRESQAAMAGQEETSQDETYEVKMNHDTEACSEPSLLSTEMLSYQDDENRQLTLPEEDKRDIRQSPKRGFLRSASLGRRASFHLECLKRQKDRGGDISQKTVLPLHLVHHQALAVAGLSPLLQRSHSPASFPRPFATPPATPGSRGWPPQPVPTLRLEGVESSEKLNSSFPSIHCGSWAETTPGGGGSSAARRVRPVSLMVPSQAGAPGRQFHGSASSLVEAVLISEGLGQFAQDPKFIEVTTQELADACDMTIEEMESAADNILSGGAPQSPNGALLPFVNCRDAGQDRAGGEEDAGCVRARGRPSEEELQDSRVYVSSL
T1 sequence (Q08289 whole entry partner): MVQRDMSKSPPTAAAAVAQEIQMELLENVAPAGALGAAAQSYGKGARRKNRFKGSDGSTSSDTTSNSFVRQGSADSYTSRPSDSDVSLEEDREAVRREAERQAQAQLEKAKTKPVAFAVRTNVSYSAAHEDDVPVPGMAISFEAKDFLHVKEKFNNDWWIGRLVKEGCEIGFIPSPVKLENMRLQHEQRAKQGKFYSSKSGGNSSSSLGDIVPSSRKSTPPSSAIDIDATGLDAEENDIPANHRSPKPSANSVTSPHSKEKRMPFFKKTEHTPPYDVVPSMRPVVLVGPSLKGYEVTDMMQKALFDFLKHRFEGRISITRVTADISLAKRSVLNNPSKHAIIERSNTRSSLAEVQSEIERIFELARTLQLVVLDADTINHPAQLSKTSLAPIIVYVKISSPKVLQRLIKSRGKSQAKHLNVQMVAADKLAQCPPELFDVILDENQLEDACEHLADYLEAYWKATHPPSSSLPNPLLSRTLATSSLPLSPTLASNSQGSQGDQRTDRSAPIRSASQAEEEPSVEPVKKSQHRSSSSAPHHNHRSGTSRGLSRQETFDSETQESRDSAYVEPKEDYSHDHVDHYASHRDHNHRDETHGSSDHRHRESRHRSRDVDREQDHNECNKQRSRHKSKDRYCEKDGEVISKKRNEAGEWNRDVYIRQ
T1 sequence (P54289 25-946 partner limits assumed): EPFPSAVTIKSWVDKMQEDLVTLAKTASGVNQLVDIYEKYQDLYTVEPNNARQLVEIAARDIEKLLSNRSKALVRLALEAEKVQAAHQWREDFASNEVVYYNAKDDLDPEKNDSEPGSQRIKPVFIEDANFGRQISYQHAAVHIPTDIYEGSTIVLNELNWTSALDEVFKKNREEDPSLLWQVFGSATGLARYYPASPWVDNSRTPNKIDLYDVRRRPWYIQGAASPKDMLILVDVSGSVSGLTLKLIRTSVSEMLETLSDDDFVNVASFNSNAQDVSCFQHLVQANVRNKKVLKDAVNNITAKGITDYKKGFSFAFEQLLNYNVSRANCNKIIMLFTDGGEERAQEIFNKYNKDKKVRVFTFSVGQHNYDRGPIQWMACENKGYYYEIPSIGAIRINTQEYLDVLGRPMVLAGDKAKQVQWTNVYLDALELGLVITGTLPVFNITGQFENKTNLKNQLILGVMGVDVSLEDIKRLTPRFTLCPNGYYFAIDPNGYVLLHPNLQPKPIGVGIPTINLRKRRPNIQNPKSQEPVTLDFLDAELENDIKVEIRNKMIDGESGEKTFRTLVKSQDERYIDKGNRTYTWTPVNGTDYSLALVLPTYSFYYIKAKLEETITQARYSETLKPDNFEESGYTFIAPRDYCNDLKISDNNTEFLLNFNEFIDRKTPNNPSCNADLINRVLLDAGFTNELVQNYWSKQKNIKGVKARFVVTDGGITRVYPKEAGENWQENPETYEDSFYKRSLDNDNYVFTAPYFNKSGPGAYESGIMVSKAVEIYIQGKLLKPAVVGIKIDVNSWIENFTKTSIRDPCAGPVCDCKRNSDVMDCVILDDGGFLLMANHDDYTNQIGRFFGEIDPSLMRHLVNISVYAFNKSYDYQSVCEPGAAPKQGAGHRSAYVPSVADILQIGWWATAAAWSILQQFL
T1 sequence (P54289 947-1103 partner limits assumed): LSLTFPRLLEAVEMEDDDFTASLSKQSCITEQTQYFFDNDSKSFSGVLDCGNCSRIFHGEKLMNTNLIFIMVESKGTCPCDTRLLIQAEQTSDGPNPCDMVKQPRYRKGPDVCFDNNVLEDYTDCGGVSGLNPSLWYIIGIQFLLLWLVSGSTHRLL

With `COc1cc(C(=O)N[C@@H](CC(=O)O)c2ccccc2C)nn1-c1ccccc1F` [SAR164653, reference compound], the “Effect of CatA inhibitor on sofosbuvir cleavage intermediate metabolite in hiPSC-CMs” value with hiPSC-CMs was “decreased, with concentration and time dependence”.
For the compound `CC(C)OC(=O)C(C)NP(=O)(OCC1OC(n2ccc(=O)[nH]c2=O)C(C)(F)C1O)Oc1ccccc1` (stereo not shown) [MNI-5], in the series with hiPSC-CMs (setting [1]), the “Intracellular Concentration, Prodrug” value turned out to be 97.1 ± 36.8 pmol/million cells; the “Intracellular Concentration, Cleavage Intermediate Metabolite” value worked out at 121.0 ± 6.24 pmol/million cells; the “Intracellular Concentration, NTP Metabolite” value is recorded as “B LOQ”. In addition, in the series with hiPSC-CMs (setting [2]), the “Intracellular Concentration, Prodrug” value was determined as 53.6 ± 14.2 pmol/million cells; the “Intracellular Concentration, Cleavage Intermediate Metabolite” value was “B LOQ”; the “Intracellular Concentration, NTP Metabolite” value is recorded as “B LOQ”. Besides, the “Reduction of cleavage intermediate metabolite level compared to sofosbuvir” value in the series with hiPSC-CMs (hiPSC-CMs, after 4-h incubation) is listed as ~ 80%.
As to `CC(C)OC(=O)C(C)NP(=O)(OCC1OC(n2ccc(=O)[nH]c2=O)C(C)(F)C1O)Oc1ccccc1` (stereo not shown) [MNI-6], in the series with hiPSC-CMs (setting [1]), the “Intracellular Concentration, Prodrug” value amounted to 65.5 ± 5.8 pmol/million cells; the “Intracellular Concentration, Cleavage Intermediate Metabolite” value is listed as “B LOQ”; the “Intracellular Concentration, NTP Metabolite” value was “B LOQ”. In the series on hiPSC-CMs (setting [2]), the “Intracellular Concentration, Prodrug” value is 46.6 ± 3.1 pmol/million cells; the “Intracellular Concentration, Cleavage Intermediate Metabolite” value is on record as “B LOQ”; the “Intracellular Concentration, NTP Metabolite” value is recorded as “B LOQ”.
For the compound `C#C[C@]1(C)[C@@H](O)[C@@H](COP(=O)(N[C@H](C)C(=O)OC(C)C)Oc2ccccc2)O[C@H]1n1ccc(=O)[nH]c1=O` (stereo partly drawn) [MNI-4, isopropyl (2R)-2-[[[(2R,3R,4R,5R)-5-(2,4-dioxopyrimidin-1-yl)-4-ethynyl-3-hydroxy-4-methyl-tetrahydrofuran-2-yl]methoxy-phenoxy-phosphoryl]amino]propanoate], the concentration for half-maximal inhibition (IC50) is 27 to 45 µM on Cav1.2 (n = 3 for each test, read-out: IC50 in repeat tests) and ~36 µM at Cav1.2 (setting [3]). Moreover, the “Effect on FP rate” value in the series with hiPSC-CM syncytia is listed as “lack of effects”. The “Effect on IMP amplitude” value in the series with hiPSC-CM syncytia was “lack of effects”. The “Intracellular Concentration, Prodrug” value amounted to 78.7 ± 6.4 pmol/million cells with hiPSC-CMs (setting [4]), 84.8 ± 12.4 pmol/million cells in the series with hiPSC-CMs (setting [5]), 77.4 ± 6.7 pmol/million cells in the series on hiPSC-CMs (setting [1]) and 75.4 ± 5.1 pmol/million cells in the series on hiPSC-CMs (setting [2]). Further, the “Intracellular Concentration, Cleavage Intermediate Metabolite” value in the series on hiPSC-CMs (setting [4]), with hiPSC-CMs (setting [5]), in the series with hiPSC-CMs (setting [1]) and with hiPSC-CMs (setting [2]) was “BLOQ” in each case. The “Intracellular Concentration, NTP Metabolite” value in the series on hiPSC-CMs (setting [4]), in the series on hiPSC-CMs (setting [5]), with hiPSC-CMs (setting [1]) and in the series on hiPSC-CMs (setting [2]) was “BLOQ” in each case.
As to `C#C[C@]1(C)[C@@H](O)[C@@H](COP(=O)(N[C@@H](C)C(=O)OC(C)C)Oc2ccccc2)O[C@H]1n1ccc(=O)[nH]c1=O` (stereo partly drawn) [MNI-1, isopropyl (2S)-2-[[[(2R,3R,4R,5R)-5-(2,4-dioxopyrimidin-1-yl)-4-ethynyl-3-hydroxy-4-methyl-tetrahydrofuran-2-yl]methoxy-phenoxy-phosphoryl]amino]propanoate], the IC50 at Cav1.2 (setting [3]) was > 150 µM. Further, on Cav1.2 (HEK-293 cells overexpressing Cav1.2 channel proteins, pH 7.2, Cav1.2/HEK-293, 150 μM, compound alone, read-out: inhibition at maximal tested concentration), the inhibition at 30 min, 150 µM amounted to 21%. Also, the “Effect on FP rate” value in the series with hiPSC-CM syncytia is recorded as “Concentration-dependent, steady-state effects”. In addition, in the series with hiPSC-CM syncytia, the “Effect on IMP amplitude” value is given as “Concentration-dependent, steady-state effects”. The “Intracellular Concentration, Prodrug” value is reported as 70.5 ± 14.4 pmol/million cells in the series on hiPSC-CMs (setting [4]), 69.9 ± 5.3 pmol/million cells in the series with hiPSC-CMs (setting [5]), 69.1 ± 6.8 pmol/million cells in the series on hiPSC-CMs (setting [1]) and 75.4 ± 2.3 pmol/million cells in the series with hiPSC-CMs (setting [2]). Besides, the “Intracellular Concentration, NTP Metabolite” value is reported as “Detected but BLOQ” in the series with hiPSC-CMs (setting [4]), “BLOQ” in the series on hiPSC-CMs (setting [5]), “Detected but BLOQ” in the series on hiPSC-CMs (setting [1]) and “BLOQ” with hiPSC-CMs (setting [2]).
Turning to `CC(C)OC(=O)[C@H](C)NP(=O)(OC[C@H]1O[C@@H](n2ccc(=O)[nH]c2=O)[C@](C)(Cl)[C@@H]1O)Oc1ccccc1` (stereo partly drawn) [MNI-3, isopropyl (2S)-2-[[[(2R,3R,4R,5R)-4-chloro-5-(2,4-dioxopyrimidin-1-yl)-3-hydroxy-4-methyl-tetrahydrofuran-2-yl]methoxy-phenoxy-phosphoryl]amino]propanoate], the “Effect on FP rate” value in the series with hiPSC-CM syncytia was “Concentration-dependent, steady-state effects”. Also, in the series with hiPSC-CM syncytia, the “Effect on IMP amplitude” value is reported as “Concentration-dependent, steady-state effects”. Further, the “Intracellular Concentration, Prodrug” value in the series on hiPSC-CMs (setting [4]) was found to be 94.0 ± 6.0 pmol/million cells; in the series on hiPSC-CMs (setting [5]) it was 89.8 ± 12.5 pmol/million cells; with hiPSC-CMs (setting [1]), 106.9 ± 10.1 pmol/million cells; with hiPSC-CMs (setting [2]), 97.3 ± 14.0 pmol/million cells. Besides, the “Intracellular Concentration, NTP Metabolite” value with hiPSC-CMs (setting [5]) and with hiPSC-CMs (setting [2]) was “BLOQ” throughout.
As to `CC[C@@H](C)[C@@H](O)[C@H](C)C(=O)[C@H](C)/C=C(\C)C[C@H](C)[C@@H]1OC(=O)[C@H]1CC` [Ebel, ebelactone B, reference compound], the “Effect of CatA inhibitor on L-ala,SP prodrug + amiodarone effects (FP rate, IMP amplitude)” value with hiPSC-CM syncytia (30 min pre-incubation and continued incubation, Ebel 3 or 10 μM with sofosbuvir or MNI-1, SAR164653 30 μM with 1 μM MNI-1, 0.3 μM amiodarone) was “concentration-dependent exacerbation”. The “Effect of CatA inhibitor on sofosbuvir cleavage intermediate metabolite in hiPSC-CMs” value in the series on hiPSC-CMs is on record as “transiently inhibited the formation of the sofosbuvir cleavage intermediate metabolite to levels below the limit of quantitation after 30 min incubation”.
